According to patent US20220356186A1, “PERK INHIBITING PYRROLOPYRIMIDINE COMPOUNDS” (HiberCell, Inc., priority 2019, published 2022):
Like-named read-outs stand apart in the source and are kept apart here.

Assays:
[1] = system: GFP-eIF2α in HEK293 cells; experiment: PERK cellular assay, TR-FRET in HEK293-EGFP-eIF2a cells after tunicamycin-induced ER stress; type: cell-based; details: HEK293-EGFP-eIF2a cells, tunicamycin 2 hours, read-out: Cellular eIF2α IC50
Procedure, shortened: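 Compounds were added 30 min before a 2 h tunicamycin ([…]) challenge of lentivirally made GFP-eIF2α HEK293 cells, 5000/well; lysate TR-FRET ratio was the read-out.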

[2] = molecular target: T1, EIF2AK3 (PERK) catalytic domain (amino acids 536-1116) (Homo sapiens, UniProt Q9NZJ5); experiment: PERK in vitro activity assay (isolated), TR-FRET kinase assay; type: biochemical; details: isolated PERK enzyme, 1.5 μM ATP; read-out: Biochemical IC50
T1 construct: EIF2AK3 (PERK) catalytic domain (amino acids 536-1116)
T1 sequence (Q9NZJ5 536-1116): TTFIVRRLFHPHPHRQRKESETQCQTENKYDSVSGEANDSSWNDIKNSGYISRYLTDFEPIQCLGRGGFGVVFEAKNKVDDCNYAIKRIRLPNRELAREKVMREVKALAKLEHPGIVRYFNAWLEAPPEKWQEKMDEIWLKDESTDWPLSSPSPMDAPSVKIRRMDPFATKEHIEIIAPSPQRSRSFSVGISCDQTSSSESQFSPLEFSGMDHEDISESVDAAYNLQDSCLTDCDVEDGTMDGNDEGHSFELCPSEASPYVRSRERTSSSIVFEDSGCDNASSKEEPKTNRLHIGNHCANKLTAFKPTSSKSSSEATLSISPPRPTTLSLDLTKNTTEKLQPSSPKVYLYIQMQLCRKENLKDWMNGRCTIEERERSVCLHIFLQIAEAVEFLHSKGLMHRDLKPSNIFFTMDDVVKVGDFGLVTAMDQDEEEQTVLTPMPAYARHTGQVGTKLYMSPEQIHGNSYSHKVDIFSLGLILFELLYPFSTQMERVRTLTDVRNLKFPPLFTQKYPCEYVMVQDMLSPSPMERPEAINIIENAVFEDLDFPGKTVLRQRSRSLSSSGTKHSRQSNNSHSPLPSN
Procedure, shortened: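 TR-FRET read-out: after EDTA stop (10 mM final), Tb-labelled phospho-eIF2a antibody (2 nM) for 90 min; IC50 via 4-parameter nonlinear fit. Reaction: PERK aa 536-1116, GFP-eIF2a 100-200 nM, HEPES pH 7.5 with MgCl2/EGTA/Brij-35, 45 min, room temperature, started by enzyme.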

| Compound | IC50 [2] | IC50 [1] | IC50 ([1]; Homo sapiens, HEK293, 2 h) |
| --- | --- | --- | --- |
| Cc1nc(N)c2c(-c3ccc(NC(=O)C(O)c4cccc(Cl)c4)c(F)c3F)cn(C)c2n1 (stereo not shown) [Example 112, N-(4-(4-amino-2,7-dimethyl-7H-pyrrolo[2,3-d]pyrimidin-5-yl)-2,3-difluorophenyl)-2-(3-chlorophenyl)-2-hydroxyacetamide] | 101 to 250 nM | 501 to 1000 nM |  |
| Cc1c(-c2cn(C)c3ncnc(N)c23)ccc(NC(=O)C(O)c2cccc(F)c2)c1F (stereo not shown) [Example 118, N-(4-(4-amino-7-methyl-7H-pyrrolo[2,3-d]pyrimidin-5-yl)-2-fluoro-3-methylphenyl)-2-(3-fluorophenyl)-2-hydroxyacetamide] | 26 to 50 nM | 251 to 500 nM |  |
| Cc1cc(NC(=O)C(O)c2cccc(F)c2)c(F)cc1-c1cn(C)c2ncnc(N)c12 (stereo not shown) [Example 120, N-(4-(4-amino-7-methyl-7H-pyrrolo[2,3-d]pyrimidin-5-yl)-2-fluoro-5-methylphenyl)-2-(3-fluorophenyl)-2-hydroxyacetamide] | 51 to 100 nM | 251 to 500 nM |  |
| Cc1nc(N)c2c(-c3ccc(NC(=O)C(O)c4cccc(F)c4)nc3C)cn(C)c2n1 (stereo not shown) [Example 128, N-(5-(4-amino-2,7-dimethyl-7H-pyrrolo[2,3-d]pyrimidin-5-yl)-6-methylpyridin-2-yl)-2-(3-fluorophenyl)-2-hydroxyacetamide] | 501 to 1000 nM | > 5000 nM |  |
| Cc1nc(N)c2c(-c3ccc(NC(=O)C(O)c4cccc(C(F)(F)F)c4)nc3C)cn(C)c2n1 (stereo not shown) [Example 130, N-(5-(4-amino-2,7-dimethyl-7H-pyrrolo[2,3-d]pyrimidin-5-yl)-6-methylpyridin-2-yl)-2-hydroxy-2-(3-(trifluoromethyl)phenyl)acetamide] | 101 to 250 nM | 1000 to 2000 nM |  |
| Cc1nc(N)c2c(-c3cnc(NC(=O)C(O)c4cccc(C(F)(F)F)c4)cc3C)cn(C)c2n1 (stereo not shown) [Example 131, N-(5-(4-amino-2,7-dimethyl-7H-pyrrolo[2,3-d]pyrimidin-5-yl)-4-methylpyridin-2-yl)-2-hydroxy-2-(3-(trifluoromethyl)phenyl)acetamide] | 26 to 50 nM | 251 to 500 nM |  |
| Cc1nc(N)c2c(-c3cnc(NC(=O)C(O)c4cccc(F)c4)cc3C)cn(C)c2n1 (stereo not shown) [Example 133, N-(5-(4-amino-2,7-dimethyl-7H-pyrrolo[2,3-d]pyrimidin-5-yl)-4-methylpyridin-2-yl)-2-(3-fluorophenyl)-2-hydroxyacetamide] | 251 to 500 nM | 4000 to 5000 nM |  |
| Cc1cccc(CC(=O)Nc2ccc(-c3cn(C)c4nc(C)nc(N)c34)c(C)c2)n1 [Example 135, N-(4-(4-amino-2,7-dimethyl-7H-pyrrolo[2,3-d]pyrimidin-5-yl)-3-methylphenyl)-2-(6-methylpyridin-2-yl)acetamide] | 26 to 50 nM |  | 251 to 500 nM |
| Cc1cccc(CC(=O)Nc2ccc(-c3cn(C)c4ncnc(N)c34)c(C)c2)n1 [Example 136, N-(4-(4-amino-7-methyl-7H-pyrrolo[2,3-d]pyrimidin-5-yl)-3-methylphenyl)-2-(6-methylpyridin-2-yl)acetamide] | 1 to 25 nM |  | 1 to 25 nM |
| Cc1cc(NC(=O)Cc2ccccc2)ccc1-c1cn(C)c2ncnc(N)c12 [Example 137, N-(4-(4-amino-7-methyl-7H-pyrrolo[2,3-d]pyrimidin-5-yl)-3-methylphenyl)-2-phenylacetamide] | 1 to 25 nM |  | 26 to 50 nM |
| COc1ccccc1CC(=O)Nc1ccc(-c2cn(C)c3ncnc(N)c23)c(C)c1 [Example 138, N-(4-(4-amino-7-methyl-7H-pyrrolo[2,3-d]pyrimidin-5-yl)-3-methylphenyl)-2-(2-methoxyphenyl)acetamide] | 1 to 25 nM |  | 101 to 250 nM |
| COc1cccc(CC(=O)Nc2ccc(-c3cn(C)c4ncnc(N)c34)c(C)c2)c1 [Example 139, N-(4-(4-amino-7-methyl-7H-pyrrolo[2,3-d]pyrimidin-5-yl)-3-methylphenyl)-2-(3-methoxyphenyl)acetamide] | 26 to 50 nM |  | 251 to 500 nM |
| Cc1cc(NC(=O)Cc2ccc(F)cc2)ccc1-c1cn(C)c2ncnc(N)c12 [Example 140, N-(4-(4-amino-7-methyl-7H-pyrrolo[2,3-d]pyrimidin-5-yl)-3-methylphenyl)-2-(4-fluorophenyl)acetamide] | 1 to 25 nM |  | 26 to 50 nM |
| COc1ccc(CC(=O)Nc2ccc(-c3cn(C)c4ncnc(N)c34)c(C)c2)cc1 [Example 141, N-(4-(4-amino-7-methyl-7H-pyrrolo[2,3-d]pyrimidin-5-yl)-3-methylphenyl)-2-(4-methoxyphenyl)acetamide] | 51 to 100 nM |  | 251 to 500 nM |
| Cc1ccccc1CC(=O)Nc1ccc(-c2cn(C)c3ncnc(N)c23)c(C)c1 [Example 142, N-(4-(4-amino-7-methyl-7H-pyrrolo[2,3-d]pyrimidin-5-yl)-3-methylphenyl)-2-(o-tolyl)acetamide] | 1 to 25 nM |  | 26 to 50 nM |
| Cc1cccc(CC(=O)Nc2ccc(-c3cn(C)c4ncnc(N)c34)c(C)c2)c1 [Example 143, N-(4-(4-amino-7-methyl-7H-pyrrolo[2,3-d]pyrimidin-5-yl)-3-methylphenyl)-2-(m-tolyl)acetamide] | 1 to 25 nM |  | 26 to 50 nM |

Further lines, with some results ahead:

| IC50 [2] | Compound | IC50 [1] | IC50 ([1]; Homo sapiens, HEK293, 2 h) |
| --- | --- | --- | --- |
| 1 to 25 nM | Cc1c(-c2cn(C)c3ncnc(N)c23)ccc(NC(=O)C(O)c2cccc(F)c2)c1F (stereo not shown) [Example 117, N-(4-(4-amino-7-methyl-7H-pyrrolo[2,3-d]pyrimidin-5-yl)-2-fluoro-3-methylphenyl)-2-(3-fluorophenyl)-2-hydroxyacetamide] | 1 to 25 nM |  |
| 1 to 25 nM | Cc1cc(NC(=O)C(O)c2cccc(F)c2)c(F)cc1-c1cn(C)c2ncnc(N)c12 (stereo not shown) [Example 119, N-(4-(4-amino-7-methyl-7H-pyrrolo[2,3-d]pyrimidin-5-yl)-2-fluoro-5-methylphenyl)-2-(3-fluorophenyl)-2-hydroxyacetamide] | 1 to 25 nM |  |
| 1 to 25 nM | Cc1nc(N)c2c(-c3cc(F)c(NC(=O)C(O)c4cccc(F)c4)cc3F)cn(C)c2n1 (stereo not shown) [Example 123, N-(4-(4-amino-2,7-dimethyl-7H-pyrrolo[2,3-d]pyrimidin-5-yl)-2,5-difluorophenyl)-2-(3-fluorophenyl)-2-hydroxyacetamide] |  | 26 to 50 nM |
| 1 to 25 nM | Cc1cc(NC(=O)C(O)c2cccc(F)c2)cc(F)c1-c1cn(C)c2ncnc(N)c12 (stereo not shown) [Example 124, N-(4-(4-amino-7-methyl-7H-pyrrolo[2,3-d]pyrimidin-5-yl)-3-fluoro-5-methylphenyl)-2-(3-fluorophenyl)-2-hydroxyacetamide] |  | 1 to 25 nM |
| 1 to 25 nM | Cc1nc(N)c2c(-c3c(C)cc(NC(=O)C(O)c4cccc(F)c4)cc3F)cn(C)c2n1 (stereo not shown) [Example 125, N-(4-(4-amino-2,7-dimethyl-7H-pyrrolo[2,3-d]pyrimidin-5-yl)-3-fluoro-5-methylphenyl)-2-(3-fluorophenyl)-2-hydroxyacetamide] |  | 51 to 100 nM |
| 1 to 25 nM | Cc1nc(N)c2c(-c3c(C)cc(NC(=O)C(O)c4cccc(F)c4)cc3C)cn(C)c2n1 (stereo not shown) [Example 126, N-(4-(4-amino-2,7-dimethyl-7H-pyrrolo[2,3-d]pyrimidin-5-yl)-3,5-dimethylphenyl)-2-(3-fluorophenyl)-2-hydroxyacetamide] |  | 51 to 100 nM |
| 1 to 25 nM | Cc1nc(N)c2c(-c3ccc(NC(=O)C(O)c4cccc(F)c4)nc3C)cn(C)c2n1 (stereo not shown) [Example 127, N-(5-(4-amino-2,7-dimethyl-7H-pyrrolo[2,3-d]pyrimidin-5-yl)-6-methylpyridin-2-yl)-2-(3-fluorophenyl)-2-hydroxyacetamide] | 101 to 250 nM |  |
| 1 to 25 nM | Cc1nc(N)c2c(-c3ccc(NC(=O)C(O)c4cccc(C(F)(F)F)c4)nc3C)cn(C)c2n1 (stereo not shown) [Example 129, N-(5-(4-amino-2,7-dimethyl-7H-pyrrolo[2,3-d]pyrimidin-5-yl)-6-methylpyridin-2-yl)-2-hydroxy-2-(3-(trifluoromethyl)phenyl)acetamide] | 51 to 100 nM |  |
| 1 to 25 nM | Cc1nc(N)c2c(-c3cnc(NC(=O)C(O)c4cccc(C(F)(F)F)c4)cc3C)cn(C)c2n1 (stereo not shown) [Example 132, N-(5-(4-amino-2,7-dimethyl-7H-pyrrolo[2,3-d]pyrimidin-5-yl)-4-methylpyriidn-2-yl)-2-hydroxy-2-(3-(trifluoromethyl)phenyl)acetamide] | 51 to 100 nM |  |
| 1 to 25 nM | Cc1nc(N)c2c(-c3cnc(NC(=O)C(O)c4cccc(F)c4)cc3C)cn(C)c2n1 (stereo not shown) [Example 134, N-(5-(4-amino-2,7-dimethyl-7H-pyrrolo[2,3-d]pyrimidin-5-yl)-4-methylpyridin-2-yl)-2-(3-fluorophenyl)-2-hydroxyacetamide] | 101 to 250 nM |  |
